{"source": "patent US20140294849A1", "about": "“COMPOSITIONS AND USES” (GLAXOSMITHKLINE BIOLOGICALS SA, priority 2011, published 2014)", "key": {"[1]": {"test_system": "cytokines and chemokines in sera", "assay_type": "in vivo, C57BL/6 mice", "settings": "for levels of TNF-α and IL-6: i.p.", "experimental": "Mice (n=5) received 50 μl of adjuvant formulations by i.m. injection for the PBS, AS03, AS01B and AS04D. PBS or LPS or MPL were injected using the intraperitoneal route and sera were collected at 2 and 6 h time points. Whole blood was collected by cardiac puncture from mice and centrifuged on a vacutainer blood collection tube containing gel for serum separation. Serum samples were cleared by centrifugation and stored at −80° C. until analysis. Protein levels in the cleared sera samples were measured by cytokine-specific beads (Millipore, USA) using the Luminex™ platform.\nTo determine whether the low inflammatory response observed in the previous in vitro experiments can be reproduced in vivo, we measured several cytokines and chemokines in the sera of C57BL/6 mice 2 and 6 h following a single intraperitoneal injection of either MPL or LPS. […] Noteworthy, IL-1β is not increased in response to MPL in contrast to LPS treatment."}, "[2]": {"test_system": "spatial learning and memory", "test": "T-water maze in APP/PS1 mice", "assay_type": "in vivo, APPSwe/PS1 mice", "settings": "for cognitive functions, T-water maze: Example 22, vs PBS", "experimental": "Five groups of APPSwe/PS1 mice received one a week for a period of 12 weeks the following treatment: • Gr1: APPSwe/PS1+NaCl 0.9% n(=20), i.p. injections • Gr4: APPSwe/PS1+CRX527 (20 μg/mouse, 130 μl, n=10), i.p. injections • Gr5: […] (50 μg/mouse, 130 μl, n=10), i.p. injections • Gr8 APPSwe/PS1+AS15 ( 1/10th of human dose, 50 μl, n=10), i.m. injections • Gr9: APPSwe/PS1+AS01B ( 1/10th of human dose, 50 μl, n=10), i.m. injections\nMice were tested during the “light on” phase of the day. Behavioral experimenter was blinded to the genetic and treatment status of animals. To assess hippocampal-dependent spatial learning and memory, mice were trained in the T-water maze task. In this paradigm, we evaluate the mouse's ability to remember the spatial location of submerged platform. The T-maze apparatus (length of stem, 64 cm; length of arms, 30 cm; width, 12 cm; height of walls, 16 cm) was made of clear fiberglass and filled with water (23±1° C.) at a height of 12 cm. A platform (11×11 cm) was placed at the end of the target arm and was submerged 1 cm below the surface. The acquisition phase allows to evaluate animals for left-right spatial learning. During the first two trials, platforms were placed on each arms of the maze to test the spontaneous turning preference of the mouse. After these two trials, the least chosen arm was reinforced by the escape platform. The mice were placed in the stem of the T-maze and choose to swim either left or right until they found the submerged platform and escape to it, to a maximum of 60 s. After reaching the platform, the mice remained on it for 20 s and then were immediately placed back in the maze. […] Repeated trials were presented on the same day up to a maximum of 48 trials. A rest period of at least 10-15 min intervened between each block of 10 trials. A mouse was considered to have learned the task when it made no errors in a block of five consecutive trials. The reversal learning phase was then conducted 48 h later. During this phase, the same protocol was repeated, except that the mice were trained to find the escape platform on the opposite side to that on which they had learned on acquisition phase. The number of trials to reach the criterion (five of five correct choices made on consecutive trials) was measured as well as the latency to find the escape platform."}, "[3]": {"test_system": "Lineage-CD11b+ monocytes in peripheral blood", "test": "Monocyte analysis and counting after adjuvant injection in mice", "assay_type": "in vivo, C57BL/6 mice", "experimental": "(§1) 24-Hours after injection of the TLR adjuvants, peripheral blood was drawn from C57BL/6 mice via cardiac puncture with lithium-heparin as anticoagulant. Red blood cell lysis was performed twice on pooled blood with Ammonium Chloride-based Buffer (Sigma, Steinheim, Germany) and cells were counted with the EasyCount™ System (Immunicon). […] Cells were finally washed three times and fixed for 15 min. with a 2% paraformaldehyde solution in PBS. Fluorescence minus one (FMO) controls were always included in the assays for fluorescent compensation setting. Samples were acquired on a flow cytometer (BD FACSCanto II) and data analyzed with the FACSDiva software (BD Biosciences). Monocytes were identified by their Side/Forward scatter properties and gated as CD3-/CD45R/B220-/Ly-6G-/NK1.1-(Lineage-)/CD11b+ cells. CD11b+ monocyte frequency was reported as a percentage of the total cells excluding debris.\nas §1, with “24 hours” for “24-Hours”, “each immunomodulator,” for “the TLR adjuvants,”, “min” for “min.”, “monocytes” for “monocyte”\nCells were finally washed twice and fixed for 15 min. with a 2% paraformaldehyde solution in PBS. FMOs controls were always included in the assays. Samples were acquired on a flow cytometer (BD FACSCanto II) and data analyzed with the FACSDiva software (BD Biosciences). Monocytes were identified and counted by their Side/Forward scatter properties, excluding debris and gated as CD3-/CD45R/B220-/Ly-6G-/NK1.1-(Lineage-)/CD11 b+ cells."}, "Aβ plaques": {"test_system": "Aβ plaques", "test": "Aβ total plaque loading, stereological analysis of brain sections", "assay_type": "in vivo, APPSwe/PS1 mice"}, "[4]": {"test_system": "human microglial cell line CHME", "test": "Phagocytosis of beta-amyloid 1-42 peptide by CHME cells", "assay_type": "cell-based", "settings": "Example 18", "experimental": "Phagocytosis of beta-amyloid 1-42 peptide by the human microglial cell line CHME was observed after the addition of TLR2 agonist containing adjuvants Protollin and Pam3CysLip peptide. […] The synthetic peptide sequence of the Pam3Cys Lip peptide is described herein: Pam3Cys—SQ EPAAPAAEAT PAAEAP. Protollin was used at concentration 1 ug per ml based on the LPS content from Shigella flexneri. Pam3Cys lip peptide was used at concentration of 5 ug per ml of the pure tri-palmitoylated peptide.\nAdditionally, cells were imaged using 42 HiLyte 488 Fluo (Anaspec, Inc.) at 2 ug per ml in DMEM complete media (Invitrogen). Lysotracker red staining was performed and slides were mounted and co-stained with DAPI to show the nucleus (blue). […] Lysotracker red reagent was purchased from Invitrogen and used as manufacturer recommendations."}, "[5]": {"test_system": "CD11b+ peripheral blood monocytes", "test": "Ex vivo uptake assay of Aβ1-42", "assay_type": "cell-based, C57BL/6 mice", "settings": "Example 19, FIG. 20; QS21 5 μg i.m.", "experimental": "Preparation of cells: Peripheral blood was drawn from C57BL/6 mice via cardiac puncture with lithium-heparin as anticoagulant, 24-hours after injection of the adjuvants used herein. Red blood cell lysis was performed twice on pooled blood with Ammonium Chloride-based Buffer (Sigma, Steinheim, Germany) and cells were counted with the EasyCount™ System (Immunicon). […]\nFACS analysis: cells were harvested after incubation with fluorescent Aβ peptide with Trypsin/EDTA and cold PBS and washed three times. 500,000 cells were incubated in 96-well plate for 10 min. on ice in the presence of Rat anti-Mouse CD16/CD32 (clone 2.4G2—BD Fc Block™) and further stained for 30 min. with a combination of the following directly conjugated antibodies at their pre-determined optimal concentration: PE-Hamster anti-Mouse CD3 (clone 145-2C11), Rat anti-Mouse CD45R/B220 (clone RA3-6B2), Rat anti-Mouse Ly-6G (clone 1A8), Mouse anti-Mouse NK1.1 (clone PK136), APC-conjugated Rat anti-Mouse CD11b (clone M1/70), PE-Cy7-conjugated Hamster anti-Mouse CD11c (clone HL3), (all from BD PharMingen). […]\nSamples were acquired on a flow cytometer (BD FACSCanto II) and data analyzed with the FACSDiva software (BD Biosciences). […]"}}, "note": "Where two headings read alike, the source gives them in different places. No end group written: not given here.", "data": [{"substance": "3-O-desacyl-4′-monophosphoryl lipid A [3D MPL]", "values": [{"measurement": "levels of TNF-α and IL-6", "setting": "[1]; 2 h post injection", "result": "modest increase"}, {"measurement": "innate cytokine profile", "setting": "[1]; Example 28, 3D MPL i.p., AS01B i.m., data not shown", "result": "attenuated cytokine profile compared to LPS"}, {"measurement": "most of the cytokine and chemokine levels", "setting": "[1]; Example 28, single intraperitoneal injection, 2 and 6 h", "result": "substantially lower than those of LPS-treated animals"}, {"measurement": "levels of TNF-α and IL-6", "setting": "[1]; after 6 h", "result": "essentially abolished"}, {"measurement": "IL-1β", "setting": "[1]; single i.p. injection, in contrast to LPS", "result": "not increased"}, {"measurement": "T-water tests, combined data of Example 21 and 22", "setting": "[2]; ANOVA-2 tests, FIG. 27C", "result": "statistical significance"}, {"measurement": "behaviour as assessed by T water maze testing", "setting": "[2]; Example 21, twelve weekly injections, vs non treated mice", "result": "significant improvements in behaviour"}, {"measurement": "cognitive functions, T-water maze", "setting": "[2]; i.m. 12x weekly, CRX601 2 μg, CRX601 2 ug in AS03, 3D MPL 5 ug, AS01B 1/10 human dose, unpaired t-tests", "result": "significant improvement of their cognitive functions"}, {"measurement": "cognitive functions, T-water maze", "setting": "[2]; intra peritoneal 50 ug per mouse, 12x weekly", "result": "significant improvement of their cognitive functions"}, {"measurement": "number of CD11b+ monocytes compared to the PBS control", "setting": "[3]; Example 9, 5 ug/mouse, i.m.", "result": "about double"}, {"measurement": "monocyte numbers", "setting": "[3]; Example 10, single i.m. injection, at 5 and 25 ug/mouse dose", "result": "stimulate monocyte numbers"}, {"measurement": "plaque loading, combined data of Example 21 and 22", "setting": "Aβ plaques; ANOVA-2, P<0.01, intra peritoneal", "result": "statistical significant plaque loading reduction"}, {"measurement": "brain histology of amyloid plaques", "setting": "Aβ plaques; Example 21, FIG. 26, immunofluorescence 6E10", "result": "more compacted plaques with less total area"}, {"measurement": "Amyloid beta plaque number", "setting": "Aβ plaques; Example 21, 50 μg/mouse i.p., once a week for 12 weeks", "result": "statistically significant reduction in Amyloid beta plaque number"}, {"measurement": "Aβ amyloid plaque level in the brain", "setting": "Aβ plaques; Example 22, FIG. 27B, intra peritoneal route", "result": "trend of reducing the Aβ amyloid plaque"}]}, {"substance": "Pam3Cys—SQ EPAAPAAEAT PAAEAP (Pam3Cys-SQEPAAPAAEATPAAEAP) [Pam3CysLip peptide, TLR2 agonist, tri-palmitoylated peptide]", "values": [{"measurement": "phagocytosis", "setting": "[4]; 5 ug per ml, pre-incubation 18 hrs", "result": "86 % of cells"}, {"measurement": "amyloid phagocytic activity", "setting": "[4]; compared to PBS, Protollin 1 ug per ml, Pam3Cys lip peptide 5 ug per ml", "result": "higher amyloid phagocytic activity"}]}, {"substance": "QS21 [reference compound]", "values": [{"measurement": "activated Ly6C+ monocytes", "setting": "[3]; Example 19, single i.m. injection, 24 hrs", "result": 75, "unit": "%"}, {"measurement": "number of monocytes", "setting": "[3]; Example 19, single i.m. injection, after 24 hrs, QS21 5 μg", "result": "9.1 % of total peripheral white blood cells"}, {"measurement": "Aβ uptake by peripheral blood monocytes", "setting": "[5]", "result": "does not promote Aβ uptake"}]}]}
